Reference: article PMC7412250, “Novel Chrysin-De-Allyl PAC-1 Hybrid Analogues as Anticancer Compounds: Design, Synthesis, and Biological Evaluation” (Molecules, 2020)

Experiments:
[1] = test system: MDA-MB-231 cells; assay: MTT cytotoxicity assay, MDA-MB-231; assay type: cell-based, human; settings: Homo sapiens; MDA-MB-231, MTT, mean ± SD of two independent experiments in triplicate; read-out: IC50 (cell survival)
Description: The synthesized chrysin derivatives were evaluated for cytotoxic efficacy in the human breast cancer cell line, MDA-MB-231, using the 3-(4,5-dimethylthiazol-2yl)-2,5-diphenyltetrazolium bromide (MTT) colorimetric assay and doxorubicin was used as a reference anticancer drug.
(§1) A panel of cancer cell lines, including breast (MDA-MB-231, BT20), brain (U251), and colon (HCT116), as well as a normal cell line (human mammary epithelial cells: HMECs), were grown as adherent monolayers in flasks with Dulbecco’s Modified Eagle Medium (DMEM), supplemented with 10% fetal bovine serum (FBS) and 1% penicillin and streptomycin in a humidified incubator with 5% CO2 at 37 °C.
The (3-(4,5-dimethylthiazol-2-yl)-2,5-diphenyltetrazolium bromide) (MTT) assay was used to determine the cytotoxicity of the 15 chrysin derivatives in the above-mentioned cell lines. Briefly, cells were harvested with 0.05% trypsin, 2.21 mM ethylenediaminetetraacetic acid (EDTA), 1× from Corning (Corning, NY, USA), and suspended at a final density of 5 × 10^3 cells/well. Cells were seeded (180 μL/well) into 96-well plates. Initially, four different concentrations of each compound were added to find the compounds with the greatest antiproliferative efficacy in the MDA-MB-231 cell line (0, 1, 10, and 100 μM). Subsequently, […] different concentrations […] of each compound were added to the remaining cell lines mentioned above. After 68 h of incubation, 20 μL of the MTT solution (4 mg/mL) were added to each well, and the plates were incubated for 4 h. This allowed viable cells to biotransform the yellow-colored MTT into dark-blue formazan crystals. Subsequently, the medium was discarded, and 150 μL of DMSO were added to each well to dissolve the formazan crystals. The absorbance was determined at 590 nm using a DTX 880 multimode detector (Beckman Coulter life sciences, IN, USA). […] The IC50 values were calculated from the cell survival percentages obtained for each compound tested at different concentrations. Similarly, the cytotoxicity of the test compounds was compared to the normal cell line (HMEC).

[2] = test system: BT-20; assay: MTT cytotoxicity assay, BT-20; assay type: cell-based; settings: Homo sapiens, mean ± SEM of three independent experiments in triplicate, read-out: IC50 Breast Cancer BT-20
Description: as §1
The (3-(4,5-dimethylthiazol-2-yl)-2,5-diphenyltetrazolium bromide) (MTT) assay was used to determine the cytotoxicity of the 15 chrysin derivatives in the above-mentioned cell lines. Briefly, cells were harvested with 0.05% trypsin, 2.21 mM ethylenediaminetetraacetic acid (EDTA), 1× from Corning (Corning, NY, USA), and suspended at a final density of 5 × 10^3 cells/well. Cells were seeded (180 μL/well) into 96-well plates. Initially, four different concentrations of each compound were added to find the compounds with the greatest antiproliferative efficacy in the MDA-MB-231 cell line (0, 1, 10, and 100 μM). Subsequently, […] different concentrations […] of each compound were added to the remaining cell lines mentioned above. After 68 h of incubation, 20 μL of the MTT solution (4 mg/mL) were added to each well, and the plates were incubated for 4 h. This allowed viable cells to biotransform the yellow-colored MTT into dark-blue formazan crystals. Subsequently, the medium was discarded, and 150 μL of DMSO were added to each well to dissolve the formazan crystals. The absorbance was determined at 590 nm using a DTX 880 multimode detector (Beckman Coulter life sciences, IN, USA). The IC50 ± SD concentrations were calculated from three experiments performed in triplicate/duplicate. The IC50 values were calculated from the cell survival percentages obtained for each compound tested at different concentrations. Similarly, the cytotoxicity of the test compounds was compared to the normal cell line (HMEC).

[3] = test system: MDA-MB-231 cells; assay: MitoTracker Red / Alexa Fluor 488 annexin V flow cytometry (mitochondrial membrane potential and apoptosis); assay type: cell-based, human; settings: for Q2 % of cells (population of cells undergoing apoptosis, quadrant II): 24 h, MitoTracker Red / annexin V, 0 µM control 14.30% (4g), 14.78% (4i); for mitochondrial membrane potential (in words): incubation for 24 h
Description: MitoTracker Red and Alexa Fluor 488 annexin V kits for flow cytometry (Molecular Probes Inc., Invitrogen, Eugene, OR) were used to measure the mitochondrial membrane potential and apoptosis in MDA-MB-231 cells. […] The cells were then […] using 0.05% trypsin, 2.21 mM EDTA, 1×, counted, and 4 μL of 10 μM of the MitoTracker Red working solution were added to 1 mL of the harvested cells. The cells were incubated at 37 °C with 5% CO2 for 30 min. The cells were washed once with PBS and resuspended in 100 μL of the annexin binding buffer. The cell suspensions were incubated with 5 μL of Alexa Fluor 488 annexin V for 15 min. This was followed by the addition of 400 μL of the annexin-binding buffer. Finally, flow cytometry was used to detect the fluorescence of stained cells at the following excitation/emission maxima: Alexa Fluor® 488 annexin V: 499/521 nm; MitoTracker® Red: 579/599 nm with the BD Accuri™ C6 flow cytometer from BD Biosciences (Becton-Dickinson, San Jose, CA, USA) and analyzed using FCS express 5 plus De Novo software (Glendale, CA, USA).

[4] = test system: MDA-MB-231 cells; assay: Western blot of apoptotic proteins (Bak, cytochrome c, caspase-7, caspase-9, mTOR); assay type: cell-based, human; settings: for cleavage of the initiator caspase, caspase 9 / expression of cytochrome c / caspase 7 activation: compared to vehicle; for mTOR expression: 5 or 10 µM; for expression of Bak: compared to cells incubated in the absence of lead compounds
Description: To measure the expression of Bak, cytochrome c, caspase-7, caspase-9, and mTOR, Western blotting was performed by lysing MDA-MB-231 cells using a lysis buffer (50 mM Tris–HCl, 150 mM NaCl, 1 mM EDTA, 0.5% NP-40, 1% Triton, 0.1% SDS) containing a protease inhibitor cocktail that consisted of Aprotinin, Bestatin, E-64, Leupeptin, and Pepstatin A (Sigma-Aldrich Life Science, St. Louis, MO, USA). The bicinchoninic acid (BCA) quantification assay was used to determine the protein levels in the cell extracts (G-BIOSCIENCES, St. Louis, MO, USA). The extracted proteins were loaded onto a 10–20% tris-glycine gel. After separation, the proteins were transferred from the gel onto a polyvinylidene difluoride (PVDF) membrane. The membranes were blocked using 5% milk in Tris-buffered saline Tween 20 for 30 min and incubated overnight with primary antibodies against Bak (1:1000), cytochrome C (1:1000), caspase-3 (1:1000), caspase 7 (1:1000), caspase 9 (1:1000), mTOR (1:1000), or B-actin (1:2000) in 5% BSA (bovine serum albumin) at 4 °C. The next day, membranes were washed and incubated with horseradish peroxidase-labelled (HRP) anti-rabbit secondary antibody (1:5000 dilutions). The membrane was incubated with the antibody for an additional 1 h. Subsequently, the membranes were washed and developed by Clarity Western ECL substrate (Bio-Rad; Hercules, CA, USA). Protein was detected using a ChemiDoc Imaging System (Bio-Rad). Densitometry analyses of the blots for the detected protein were quantified using the ImageJ software. Data was calculated as ratios of protein/β-actin.

Compound	IC50 [1] [µM]	IC50 [2] [µM]	Q2 % of cells (population of cells undergoing apoptosis, quadrant II) ([3]; 5 µM) [%]	Q2 % of cells (population of cells undergoing apoptosis, quadrant II) ([3]; 10 µM) [%]	mitochondrial membrane potential (in words) [3]	cleavage of the initiator caspase, caspase 9 ([4]; 5 µM)	expression of cytochrome c ([4]; 5 µM)	mTOR expression [4]	caspase 7 activation ([4]; both concentrations (5 and 10 µM))	expression of Bak [4]	caspase 7 activation ([4]; 10 µM)	cleavage of the initiator caspase, caspase 9 ([4]; 10 µM)	expression of cytochrome c ([4]; 10 µM)
O=C(COc1cc(O)c2c(=O)cc(-c3ccccc3)oc2c1)N/N=C/c1ccc(O)cc1O [Compound 4g, (E,Z)-N’-(2,4-Dihydroxybenzylidene)-2-((5-hydroxy-4-oxo-2-phenyl-4H-chromen-7-yl)oxy)acetohydrazide]	5.98 ± 2.25	5.32 ± 0.72	26.56	58.05	significant loss of the mitochondrial membrane potential	significant cleavage	significant increase	no significant change	activated caspase 7	increase			
O=C(COc1cc(O)c2c(=O)cc(-c3ccccc3)oc2c1)N/N=C/c1ccc(O)c(O)c1O [Compound 4i, (E,Z)-2-((5-Hydroxy-4-oxo-2-phenyl-4H-chromen-7-yl)oxy)-N’-(2,3,4-trihydroxybenzylidene)acetohydrazide]	9.4 ± 1.45	10.4 ± 0.2	32.25	42.56	significant loss of the mitochondrial membrane potential			no significant change		increase	activated caspase 7	significant cleavage	significant increase
